Data as given in US20250205265A1, “ASPERULOSIDE AS AN AGENT FOR IMPROVING VASCULAR AND METABOLIC FUNCTION IN OBESITY: ROLE OF NRF2 ACTIVATION” (The Chinese University of Hong Kong, priority 2023, published 2025).
Entries after “also recorded” stand apart in the source; their conditions may differ.

What was measured:
primary adipocytes = test: Real-time PCR in primary adipocytes; type: cell-based, mice
Method: Primary adipocytes were treated with ASP overnight. […] Data represent means±SEM of 4 mice. P values were determined using One-way ANOVA. *p<0.05.
Primary adipocytes were treated with 40 μmol/L ASP (FIG. 22A) or different doses of ASP (FIG. 22B) for 24 hours. […] Scale bar, 50 μm (FIG. 22B). Data represent means±SEM of 4 experiments. P values were determined using One-way ANOVA. *p<0.05.
(§1) After induction of obesity in C57BL/6 male mice fed with the high-fat diet for twelve weeks, they were treated daily with ASP (50 mg/kg) via oral gavage for seven weeks in vivo study. C57BL/6 mice aortae were used for ex vivo studies. Endothelial cells, HepG2 and primary adipocytes were used for in vitro studies. Vascular function was determined by wire myograph. H&E staining was employed for histological examination. Oil Red O staining was used to determine lipid droplets in tissues and cells. DHE and MitoSOX staining were used to detect ROS levels. QPCR, aortic en-face immunofluorescence staining, and Western blotting were used to analyze mRNA and protein expressions. ARE binding activity was determined by Dual luciferase reporter assay. Small interfering (si)RNA of Nrf2 and HO-1, inhibitors of Nrf2 (ML385, Cat. No.: HY-100523) and HO-1 (OB-24, HY-118487) were used to elucidate the mechanistic pathway of ASP's action.

Nrf2 [1] = test: Real-time PCR of Nrf2 in obese mice aortas; type: in vivo
Method: (§2) After induction of obesity in C57BL/6 male mice fed with high fat diet for twelve weeks, they were treated daily with ASP (50 mg/kg) via oral gavage for seven weeks in vivo study. C57BL/6 mice aortae were used for ex vivo study and endothelial cells were used for in vitro study. Vascular function was determined by wire myograph. DHE and MitoSOX staining were used to detect ROS levels. QPCR, aortic en-face immunofluorescence staining, and Western blotting were used to analyze mRNA and protein expressions. Small interfering (si)RNA of Nrf2 and HO-1, inhibitors of Nrf2 (ML385, Cat. No.: HY-100523) and HO-1 (OB-24, HY-118487) were used to elucidate the mechanistic pathway of ASP's action.
as §1, with “QPCR, aortic en-face immunofluorescence staining, and Western blotting were used to analyze mRNA and protein expressions.” left out, “Small interfering (si)RNA of Nrf2 and HO-1, inhibitors of Nrf2 (ML385, Cat. No.: HY-100523) and HO-1 (OB-24, HY-118487) were used to elucidate the mechanistic pathway of ASP's action.” left out

ROS = test: Ex vivo DHE staining of ROS in IL-1β-treated aortas; set-up: species or system mice
Method: as §2, §1

FAS, ACC2, SREBP1C, HSL = test: Real-time PCR of lipid metabolism genes in PA-treated HepG2 cells; type: cell-based
Method: as §1

Nrf2 [2] = test: Nrf2 nuclear translocation and protein level in obese mice livers; type: in vivo
Method: as §1

[3] = tested on: perirenal adipose tissues; test: Weight and sizes of perirenal adipose tissues in obese mice; type: in vivo
Method: as §1

[4] = tested on: Ho-1, Sirt1, Sirt3, Sirt6 and Sod2; test: Real-time PCR of Nrf2 downstream genes in obese mice livers; type: in vivo
Method: as §1

endothelial cells = test: ROS level in endothelial cells; type: cell-based
Method: as §2
as §1, with “QPCR, aortic en-face immunofluorescence staining, and Western blotting were used to analyze mRNA and protein expressions.” left out, “Small interfering (si)RNA of Nrf2 and HO-1, inhibitors of Nrf2 (ML385, Cat. No.: HY-100523) and HO-1 (OB-24, HY-118487) were used to elucidate the mechanistic pathway of ASP's action.” left out

obese mice livers = test: DHE staining of obese mice livers; type: in vivo
Method: as §1

HepG2 cells = test: Oil Red O staining of PA-treated HepG2 cells; type: cell-based; conditions: Nrf2-inhibited HepG2 cells
Method: as §1

[5] = tested on: high-fat diet (HFD)-fed mice; test: Vascular function by wire myograph, aortas of obese mice; type: in vivo; conditions: ASP 50 mg/kg oral gavage daily for seven weeks
Method: as §2
as §1, with “QPCR, aortic en-face immunofluorescence staining, and Western blotting were used to analyze mRNA and protein expressions.” left out, “Small interfering (si)RNA of Nrf2 and HO-1, inhibitors of Nrf2 (ML385, Cat. No.: HY-100523) and HO-1 (OB-24, HY-118487) were used to elucidate the mechanistic pathway of ASP's action.” left out

Nrf2 [6] = test: Nrf2 nuclear translocation in palmitic acid-treated HepG2 cells; type: cell-based
Method: as §1

Asperuloside
mRNA expression levels of Nprc and Cd36 (primary adipocytes; primary adipocytes treated with ASP overnight): dose-dependently decreases mRNA expression levels of Nprc (FIG. 21A) and Cd36
mRNA expression of Nrf2 (primary adipocytes; primary adipocytes, different doses of ASP for 24 hours): dose-dependently increases mRNA expression of Nrf2
increase of Nrf2 mRNA expression (primary adipocytes; primary adipocytes, worded as embodiment, cf. FIG. 22B): at least 1.2 fold
increase of Nrf2 expression (Nrf2 [1]; obese mice aortae, ASP 50 mg/kg oral gavage daily for seven weeks): about 1.5 fold
Nrf2 mRNA expression level (Nrf2 [1]; obese mice aortas, real-time PCR): increases mRNA expression level of Nrf2
ROS generation (ROS; IL-1β, HO-1-inhibited aortas): fails to rescue the impairment (FIG. 2C) or decrease ROS generation
IL-1β-induced ROS overproduction (ROS; ML385-treated aortas): fails to reverse impairment (FIG. 4E) or suppress IL-1β-induced ROS overproduction
IL-1β-induced ROS overexpression (DHE staining) (ROS; endothelial Nrf2 knocked down): fails to suppress IL-1β-induced ROS overexpression
mRNA levels of FAS, ACC2 and SREBP1C (FAS, ACC2, SREBP1C, HSL; Nrf2-inhibited HepG2 cells): fails to decrease its expression levels
PA-stimulated overexpression of mRNA levels of FAS, ACC2 and SREBP1C (FAS, ACC2, SREBP1C, HSL; PA-treated HepG2 cells): inhibited by ASP treatment
HSL mRNA expression (FAS, ACC2, SREBP1C, HSL; palmitic acid, Nrf2-inhibited HepG2 cells): fails to restore palmitic acid-decreased HSL mRNA expression
Nrf2 nuclear translocation (immunofluorescence) (Nrf2 [2]; obese mice livers): stimulates Nrf2 nuclear translocation in obese mice livers
Nrf2 protein level (western blot) (Nrf2 [2]; obese mice livers): increased
increase of protein level of Nrf2 in the liver (Nrf2 [2]; worded as embodiment, cf. FIG. 13B): about 3 fold
ratio of perirenal adipose tissues to body weight ([3]; obese mice): decreased
sizes of adipocytes (H&E staining) ([3]; obese mice): remarkably reduces the sizes of adipocytes
decrease of perirenal adipose tissues in weight and sizes, average ([3]; worded as embodiment, cf. FIGS. 14A-14B): about 35%
gene expressions of Ho-1, Sirt1, Sirt3, Sirt6 and Sod2 ([4]; obese mice livers): upregulates gene expressions of Ho-1, Sirt1, Sirt3, Sirt6 and Sod2
increase of HO-1 mRNA expression in the liver ([4]; worded as embodiment, cf. FIG. 13C): about 2.5 fold
ROS level (endothelial cells; HO-1-silencing cells): fails to decrease ROS level
oxidative stress (endothelial cells; endothelial cells): suppresses oxidative stress
oxidative stress (DHE staining) (obese mice livers): suppresses oxidative stress in obese mice livers
PA-induced lipid accumulation (Oil Red O) (HepG2 cells): fails to alleviate PA-induced lipid accumulation
acetylcholine-induced endothelium-dependent relaxations (EDRs) [5]: prevents HFD-induced impairment of EDRs; also recorded: significantly reversed the impairments of endothelium-dependent relaxations; also recorded: significantly improved endothelial-dependent relaxations
endothelium-independent relaxations in response to sodium nitroprusside (SNP) [5]: remain similar among different groups
Nrf2 nuclear translocation (immunofluorescence) (Nrf2 [6]): stimulates Nrf2 nuclear translocation in palmitic acid-treated HepG2 cells
